Results on two compounds are retold here after ChEMBL document CHEMBL3734703, “(E)-2-Cyano-3-(substituted phenyl)acrylamide analogs as potent inhibitors of tyrosinase: A linear β-phenyl-α,β-unsaturated carbonyl scaffold” (Bioorg Med Chem, 2015).

Each structure is given as a SMILES string. Activity calls are given as the source filed them. The rule behind the calls is not given here.

The target of data set [1] is T1, Tyrosinase (Agaricus bisporus) (UniProt O42713).
T1 sequence (whole entry): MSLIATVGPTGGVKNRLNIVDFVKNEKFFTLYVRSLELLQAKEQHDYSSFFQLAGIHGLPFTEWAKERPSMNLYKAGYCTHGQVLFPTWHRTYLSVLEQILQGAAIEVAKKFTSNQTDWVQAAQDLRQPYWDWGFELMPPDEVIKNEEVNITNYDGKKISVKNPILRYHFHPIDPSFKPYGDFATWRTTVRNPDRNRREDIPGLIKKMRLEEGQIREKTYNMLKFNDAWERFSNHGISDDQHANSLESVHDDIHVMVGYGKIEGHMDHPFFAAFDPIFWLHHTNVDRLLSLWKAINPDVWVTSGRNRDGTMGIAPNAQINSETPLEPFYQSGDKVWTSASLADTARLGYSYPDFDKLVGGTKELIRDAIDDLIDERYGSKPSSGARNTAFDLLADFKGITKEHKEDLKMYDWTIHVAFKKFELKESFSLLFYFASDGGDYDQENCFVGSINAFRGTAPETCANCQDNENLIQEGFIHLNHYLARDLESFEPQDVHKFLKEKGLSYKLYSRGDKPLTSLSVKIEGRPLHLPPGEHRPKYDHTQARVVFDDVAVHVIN
Kind of data set: Competitive inhibition of mushroom tyrosinase using L-tyrosine as substrate assessed as dopachrome production after 30 mins by Lineweaver-Burk plot analysis.

Data set [2] in a line: Cytotoxicity against mouse B16F10 cells assessed as cell viability at 5 uM after 24 hrs by MTT assay relative to control. The conditions noted are these: read-out: Activity. It counts as cell-based, B16-F10. In general terms: Tetrazolium dyes change colour on reduction, which living cells bring about.
The nature of data set [3]: Cytotoxicity against mouse B16F10 cells assessed as cell viability at 10 uM after 24 hrs by MTT assay relative to control. In kind it is cell-based, B16-F10. The conditions noted are these: read-out: Activity.
Data set [4] in a line: Cytotoxicity against mouse B16F10 cells assessed as cell viability at 25 uM after 24 hrs by MTT assay relative to control. In kind it is cell-based, B16-F10. To be noted: read-out: Activity.
Data set [5] relates to B16-F10. Kind of data set: Inhibition of alpha-MSH-mediated melanin biosynthesis in mouse B16F10 cells after 24 hrs. It counts as functional, cell-based.
Data set [6] has as its target T2, Tyrosinase (Mus musculus) (UniProt P11344).
T2 sequence (whole entry): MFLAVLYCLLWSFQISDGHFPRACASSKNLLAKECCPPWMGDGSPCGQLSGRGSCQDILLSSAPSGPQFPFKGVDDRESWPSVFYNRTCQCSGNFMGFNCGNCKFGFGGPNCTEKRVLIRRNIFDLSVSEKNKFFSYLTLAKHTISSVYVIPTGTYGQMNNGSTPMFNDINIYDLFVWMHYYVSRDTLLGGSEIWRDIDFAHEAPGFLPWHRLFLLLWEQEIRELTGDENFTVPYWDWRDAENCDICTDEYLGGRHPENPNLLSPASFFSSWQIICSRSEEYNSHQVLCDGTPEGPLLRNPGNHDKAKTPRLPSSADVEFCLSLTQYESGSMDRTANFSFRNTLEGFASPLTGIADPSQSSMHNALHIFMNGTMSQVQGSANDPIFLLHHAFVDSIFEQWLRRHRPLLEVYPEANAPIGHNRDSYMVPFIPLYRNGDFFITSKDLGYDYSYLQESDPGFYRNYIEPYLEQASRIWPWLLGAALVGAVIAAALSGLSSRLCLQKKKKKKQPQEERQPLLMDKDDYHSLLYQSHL
The data set can be described thus: Inhibition of tyrosinase in alpha-MSH-stimulated mouse B16F10 cells assessed as L-DOPA oxidation after 24 hrs. It counts as cell-based. To be noted: B16-F10.

Data set [7] concerns B16-F10. Kind of data set: Inhibition of alpha-MSH-mediated melanin biosynthesis in mouse B16F10 cells at 25 uM after 24 hrs. In kind it is functional, cell-based.

For the compound `N#C/C(=C\c1ccc(O)c(O)c1)C(N)=O`, the inhibition entry in data set [1], in data set [5] and in data set [6] was “Dose-dependent effect” in each case. In data set [2], the viability at 24 h, 5 µM is 99.6%. In addition, the viability at 24 h, 10 µM in data set [3] is 98.6%. Besides, in data set [4], the viability at 24 h, 25 µM was 96.9%.

In the case of `O=c1cc(CO)occ1O`, the inhibition result in data set [7] is “Active”.
